Results reported in the METLIN SMRT retention time set (Domingo-Almenara et al. 2019).

Assay: gradient 5% acetonitrile 3 min, to 50% in 2 min, to 85% in 15 min, held 3 min, 100 µL/min
Settings: column: Zorbax Extend-C18 2.1 x 50 mm; eluents: water / acetonitrile, 0.1% formic acid
Outline: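 The mobile phases were water and acetonitrile, each with 0.1% formic acid, pumped at 100 μL/min through a Zorbax Extend-C18 column (2.1 × 50 mm, 1.8 μm). Pure standards were injected as mixtures of ~100 molecules and detected by a quadrupole time-of-flight mass spectrometer in positive and negative ionization mode. Retention time came from computationally picked adduct peaks, each inspected by hand.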

RP-LC retention time [s] | Structure (SMILES)
640 | Cc1noc([C@@H]2CN(C(=O)c3cc(C)oc3C)C[C@H]2CO)n1
617 | COc1ccc(NC(=O)N2CCC(n3cnc4cccnc43)CC2)cc1
761 | Cc1ccccc1-c1noc(-c2cccn(CC(=O)NC(C)C)c2=O)n1
696 | CCOC(=O)c1noc2nc(C)nc(NCC3CCN(Cc4cccc(Cl)c4)CC3)c12
610 | CCOC(=O)c1ccc(NC(=O)N2CCC(CN3CCOCC3)CC2)cc1
702 | O=C(Cc1ccc2c(c1)OCO2)Nc1ccc2scnc2c1
615 | Cc1nnc(CNC(=O)C(=O)Nc2ccc3c(c2)OCCO3)o1
746 | Cc1nc(NC(=O)N2CCC[C@H]2C(N)=O)sc1-c1ccnc(C(C)(C)C(F)(F)F)c1
669 | CCOC(=O)C1=C(CN2CCN(c3ncccn3)CC2)NC(=O)NC1c1ccc(Cl)cc1 (stereo not drawn)
828 | CCNC(=O)c1cc2cc(Br)ccc2[nH]1
617 | O=C(Nc1cccc(C(F)(F)F)c1)NC1CCN(c2cc(N3CCCC3)cnn2)C1 (stereo not drawn)
934 | CCOC(=O)c1nc(N2CCOCC2)c2c(-c3ccccc3Cl)noc2n1
815 | Cc1ccc(C(=O)N2CCC3(C2)C(=O)N(C)c2ccccc23)cc1F (stereo not drawn)
671 | Cc1cc(C)n2nc(SCC(=O)NCc3ccc(F)cc3)nc2n1
592 | CCN1CCn2cc(C(=O)NCc3cc(C)ccc3C)nc2C1
531 | O=C(NCc1ccc(F)cc1)Nc1cnc2c(c1)CCC2
666 | CC(=O)Nc1c(C)noc1/C=C\c1ccc(C)c(S(=O)(=O)N2CCN(c3ccccn3)CC2)c1
770 | Cc1ccc(CNC(=O)N2CCCC(OCc3nc(C)no3)C2)cc1 (stereo not drawn)
818 | CCOC(=O)C1CCc2sc(NC(=O)Cc3noc4ccccc34)nc21 (stereo not drawn)
883 | Cc1[nH]c(C(=O)N2CCN(c3cccc(Cl)c3)CC2)c(C)c1S(=O)(=O)N1CCOCC1
570 | O=C(O)c1cnc(NCc2ccncc2)nc1-c1ccccc1
1010 | CCOC(=O)C1CCN(c2ncccc2-c2nnc(-c3ccccc3)o2)CC1
710 | Cc1ccc(-c2nc3cccc(C)n3c2Nc2ccc3c(c2)OCCO3)cc1
873 | O=C(NC1CCCC1)c1ccc2c(c1)N(Cc1ccccc1)C(=O)CO2
775 | Cc1cc2c(cc1S(=O)(=O)N1CCCC1C(=O)Nc1ccc(F)cc1)OC(C)C(=O)N2 (stereo not drawn)
744 | COc1cccc(-c2c(C(=O)O)nnn2-c2ccc3c(c2)OCCO3)c1
1010 | O=C(Cn1nc(N2CCSCC2)c2ccccc2c1=O)Nc1cccc(Cl)c1

Further lines, the compound ahead of its results:

Structure (SMILES) | RP-LC retention time [s]
CC(C)CNC(=O)C1CCN(c2nc3ccsc3c(=O)n2-c2ccccc2)CC1 | 786
NCC(O)COCC1COc2ccccc2O1 (stereo not drawn) | 549
Cc1ccc(CN2C(=O)CN(S(C)(=O)=O)CC2(C)C(=O)NCc2ccc(F)cc2)cc1 (stereo not drawn) | 836
CC(C)C(=O)Nc1cccn2nc(C3CCC3)nc12 | 802
Cc1cc(C)cc(NC(=O)C2CCN(S(=O)(=O)c3cn(C)cn3)CC2)c1 | 732
CCn1cc(-c2nc(CC(=O)Nc3ccc(Cl)cc3F)cs2)c2cccnc21 | 1100
Cc1nc(-c2csc(S(=O)(=O)N3CCCC(C(=O)N4CCCCCC4)C3)c2)no1 (stereo not drawn) | 902
Cc1cccc(NC(=O)C2CCN(S(=O)(=O)c3cc(C(=O)N4CCCCCC4)cs3)CC2)n1 | 769
COCc1nc2nccc(-c3ccc(OC)cc3F)n2n1 | 711
CC(C)c1nncn1C1CCN(S(=O)(=O)c2cccc(Cl)c2)CC1 | 767
COc1nccnc1N1CCC(NC(=O)COc2ccc(F)cc2)C1 (stereo not drawn) | 726
CCNc1cc(N2CCCC(CCC(=O)NC(CC)CC)C2)ncn1 (stereo not drawn) | 658
CC(C)(C)C1CCc2[nH]nc(C(N)=O)c2C1 (stereo not drawn) | 745
CCc1cccc(C)c1NC(=O)C1Cc2cc(S(=O)(=O)N3CCCCC3)ccc2N1C(C)=O (stereo not drawn) | 900
Cc1ccc(C(=O)OCCN2C(=O)c3ccccc3C2=O)cc1 | 775
O=C(NCC(F)(F)F)C1CCN(C(=O)Cc2ccc(Cl)cc2)CC1 | 707
Cc1cccc(CC(=O)N2C[C@@H]3C[C@H](NC(=O)c4ccccc4)[C@H]2C3)c1 | 794
COc1ccc(NC(=O)C2CCc3nc(N4CCC(C)CC4)ncc3C2)c(C)c1 (stereo not drawn) | 747
Cc1cccc(NC(=O)Cn2ccc3ccn(C)c3c2=O)c1C | 761
CCn1cc(C(=O)Nc2ccc(Br)cc2)c2nn(-c3ccccc3)c(=O)c-2c1 | 1090
CN(C)CCNC(=O)C1CCN(S(=O)(=O)c2ccc3c(c2)sc(=O)n3C)CC1 | 606

Structure (SMILES) | RP-LC retention time [s]
O=C(c1cccs1)N1CCCC1c1ccc(F)cc1 (stereo not drawn) | 910
CCCN(CC1CCOC1)S(=O)(=O)c1ccccc1CC (stereo not drawn) | 992
CCN1N=C(C(=O)N2CCC(C)CC2)S(=O)(=O)c2ccccc21 | 844
O=c1c2cc(-c3cccs3)nn2ccn1Cc1noc(CN2CCCCCCC2)n1 | 688
COc1ccc(-c2ccnc3nc(-c4cccs4)nn23)c(F)c1 | 905
CC(=O)Nc1ccc(N2C(=O)c3cccc4c([N+](=O)[O-])ccc(c34)C2=O)cc1 | 714
Cn1c(NCCN(CCO)CCCc2ccc([N+](=O)[O-])cc2)cc(=O)n(C)c1=O | 610
Cc1nn(CC(=O)NC2CCCC2)c(=O)c2c(-n3cccc3)n(-c3cccc(F)c3)nc12 | 964
O=C(Nc1cccc(Cl)c1F)C1CC(=O)N(c2ccc3c(c2)CCN3C(=O)C2CC2)C1 (stereo not drawn) | 831
CCCCNC(=O)c1cn(CCC)nc1S(=O)(=O)N1CCN(c2ccccc2OCC)CC1 | 1140
CCCc1ccc(C(=O)CC2(O)C(=O)Nc3ccccc32)cc1 (stereo not drawn) | 831
COc1ccc(-n2c(=O)c(C(=O)Nc3cccc(Cl)c3)c(O)c3cccnc32)cc1 | 1370
O=c1c2nc(-c3ccccc3)cn2ccn1-c1ccc(F)c(Cl)c1 | 853
O=C(Nc1ccccc1F)N1CCC(N2CCN(Cc3ccc(F)cc3)C2=O)CC1 | 811
CC(C)Oc1ccc(-c2noc(Cn3nc(-c4ccccc4)ccc3=O)n2)cc1 | 732
O=C(Nc1c(-c2ccccc2)nc2ccccn12)c1ccc([N+](=O)[O-])cc1 | 654
Cc1nc2cc(-c3noc(Cc4cccc5ccccc45)n3)ccc2o1 | 1130
O=C(c1ccncc1)N1CCC(c2noc(-c3cnccn3)n2)C1 (stereo not drawn) | 584
CN(CCc1noc(COc2ccc(F)cc2)n1)C(=O)c1ccc(F)cc1 | 878
COC(=O)c1ccc(N2C=C(C#N)S(=O)(=O)c3c(F)cccc32)cc1 | 858
